# Experimental data from paper PMC3290551, “Core Site-Moiety Maps Reveal Inhibitors and Binding Mechanisms of Orthologous Proteins by Screening Compound Libraries” (PLoS ONE, 2012).
# Several values for one entry are separate records, joined by “and”; a condition that tells them apart may be missing. Identical values can stand only once. Like-named read-outs stand apart in the source and are kept apart here.
# Key:
# Type in all cases: biochemical
# [1] = target: T1, H. pylori shikimate kinase (HpSK) (Helicobacter pylori, UniProt P56073); assay: Analysis of inhibitor kinetics / inhibitor modality (HpSK); conditions: for Inhibitor modality with respect to ATP / Inhibitor modality with respect to shikimate: HpSK; for Ki: SK species: Hp
# T1 construct: made in house; host or cells: Escherichia coli (stated for the mutants, which followed the wild-type procedure)
# T1 sequence (P56073 whole entry): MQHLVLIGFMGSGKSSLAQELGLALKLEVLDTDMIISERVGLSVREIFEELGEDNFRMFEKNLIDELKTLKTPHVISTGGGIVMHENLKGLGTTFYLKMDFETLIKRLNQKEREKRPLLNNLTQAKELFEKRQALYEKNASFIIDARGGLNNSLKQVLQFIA
# Description: (§1) Shikimate kinase activity was determined by coupling the release of ADP from the SK-catalyzed reaction to the oxidation of NADH using pyruvate kinase (EC 2.7.1.40) and lactate dehydrogenase (EC 1.1.1.27) as coupling enzymes. Shikimate-dependent oxidation of NADH was measured by monitoring the decrease in A340 (ε = 6,200 M^−1 cm^−1). The assay was carried out at 25°C in a mixture of 100 mM Tris-HCl buffer, pH 7.5, 50 mM KCl, 5 mM MgCl2, 1.6 mM shikimic acid, 2.5 mM ATP, 1 mM phosphoenolpyruvate (PEP), 0.1 mM NADH, 2.5 units of pyruvate kinase per ml, and 2.7 units of lactate dehydrogenase per ml. All assays were conducted in a 96-well microplate and analyzed with a spectrophotometer (FLUOstar OPTIMA, BMG LABTECH).
# (§2) After the preliminary screening, the inhibitor modality was determined by measuring the effects of inhibitor concentrations on the enzymatic activity as a function of substrate concentration. In the inhibition experiment in which the ATP concentration was fixed at 2.5 mM, shikimate was a varied substrate (0.06, 0.12, 0.24, 0.48, and 0.96 mM) when the concentration of inhibitor was varied from 0 to 50 µM. In parallel, in the inhibition experiment in which the shikimate concentration was fixed at 1.6 mM, ATP was a varied substrate (0.06, 0.12, 0.24, 0.48, and 0.96 mM) when the concentration of inhibitor was varied from 0 to 50 µM. A nonlinear least square-fitting algorithm was applied to the absorbance data to determine the kinetic mechanism data.
# [2] = target: T2, M. tuberculosis shikimate kinase (MtSK) (Mycobacterium tuberculosis, UniProt P9WPY3); assay: Analysis of inhibitor kinetics / inhibitor modality (MtSK); conditions: for Inhibitor modality with respect to ATP / Inhibitor modality with respect to shikimate: MtSK; for Ki: SK species: Mt
# T2 construct: His6 (N); made in house; host or cells: E. coli BL-21 (DE3)
# T2 sequence (P9WPY3 whole entry): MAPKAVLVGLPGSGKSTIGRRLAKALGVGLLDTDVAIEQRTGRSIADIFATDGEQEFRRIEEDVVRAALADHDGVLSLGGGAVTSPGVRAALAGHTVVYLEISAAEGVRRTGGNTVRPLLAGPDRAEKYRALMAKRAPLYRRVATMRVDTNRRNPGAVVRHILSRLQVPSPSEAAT
# Description: as §1, §2
# [3] = target: T1, H. pylori shikimate kinase (HpSK); assay: Shikimate kinase coupled enzyme inhibition assay (HpSK); conditions: for IC50: 1.6 mM shikimic acid, 2.5 mM ATP, 25°C, pH 7.5; for Inhibitory effect against shikimate kinase (in words): HpSK
# [4] = target: T2, M. tuberculosis shikimate kinase (MtSK); assay: Shikimate kinase coupled enzyme inhibition assay (MtSK); conditions: for IC50: SK species: Mt, 1.6 mM shikimic acid, 2.5 mM ATP, 25°C, pH 7.5; for Inhibitory effect against shikimate kinase (in words): MtSK
# [5] = ATP varied, shikimate fixed at 1.6 mM, read-out: αKi, ATP
# [6] = shikimate varied, ATP fixed at 2.5 mM, read-out: αKi, SKM
smiles,measurement,setting,value
Cc1cc(N=Nc2ccc(N=Nc3ccc(N=Nc4ccc(O)c(C(=O)O)c4)cc3)c(S(=O)(=O)O)c2C)c(N)cc1N [NSC45611],Inhibitor modality with respect to ATP,[1],competitive inhibitors of ATP
same,Inhibitor modality with respect to shikimate,[1],competed with shikimate
same,Ki,"[1]; αKi, ATP, ATP varied, shikimate fixed at 1.6 mM",1.1 µM
same,Ki,"[1]; αKi, SKM, shikimate varied, ATP fixed at 2.5 mM",1.7 µM
same,Inhibitor modality with respect to ATP,[2],competitive inhibitors of ATP
same,Inhibitor modality with respect to shikimate,[2],competed with shikimate
same,Ki,[2]; [5],0.3 µM
same,Ki,[2]; [6],0.7 µM
same,IC50,"[3]; IC50, SK species: Hp",≤ 10 µM and 4.8 µM
same,IC50,[4],≤ 10 µM and 1.5 µM
O=S(=O)(O)c1cc(O)c2c(O)c(N=Nc3cccc4ccccc34)c(S(=O)(=O)O)cc2c1 [NSC45208],Inhibitory effect against shikimate kinase (in words),[3],lost the inhibitory
same,IC50,"[3]; IC50, SK species: Hp",> 100 µM
same,Inhibitory effect against shikimate kinase (in words),[4],lost the inhibitory
same,IC50,[4],> 100 µM
Nc1ccc2c(O)c(N=Nc3ccc4c(O)cc(S(=O)(=O)O)cc4c3)c(S(=O)(=O)O)cc2c1 [NSC162535],Inhibitor modality with respect to ATP,[1],competitive inhibitors of ATP
same,Inhibitor modality with respect to shikimate,[1],competed with shikimate
same,Ki,"[1]; read-out: αKi, ATP, ATP varied, shikimate fixed at 1.6 mM",1.9 µM
same,Ki,"[1]; read-out: αKi, SKM, shikimate varied, ATP fixed at 2.5 mM",1.8 µM
same,Inhibitor modality with respect to ATP,[2],competitive inhibitors of ATP
same,Inhibitor modality with respect to shikimate,[2],competed with shikimate
same,Ki,[2]; [5],0.2 µM
same,Ki,[2]; [6],0.6 µM
O=C(Nc1ccc(C(=O)Nc2ccc3c(O)cc(S(=O)(=O)O)cc3c2)cc1)c1ccccc1 [NSC37215],Inhibitory effect against shikimate kinase (in words),[3],lost the inhibitory
same,IC50,"[3]; IC50, SK species: Hp",> 100 µM
same,Inhibitory effect against shikimate kinase (in words),[4],lost the inhibitory
same,IC50,[4],> 100 µM
O=C(Nc1ccc2c(O)cc(S(=O)(=O)O)cc2c1)Nc1ccc2c(O)cc(S(=O)(=O)O)cc2c1 [NSC45174],IC50,"[3]; IC50, SK species: Hp",≤ 10 µM and 7.8 µM
same,IC50,[4],≤ 10 µM and 2.8 µM
O=C(NNC(=O)C1c2ccccc2Oc2ccccc21)c1cccc([N+](=O)[O-])c1 [RH00037],IC50,"[3]; IC50, SK species: Hp",23.8 µM
same,IC50,[4],< 100 µM
Nc1ccc2c(O)c(/N=N/c3ccc([N+](=O)[O-])cc3)c(S(=O)(=O)O)cc2c1 [NSC45547],IC50,[3]; SK species: Hp,≤ 10 µM and 7.8 µM
O=C(Nc1ccc2c(O)c(/N=N/c3ccc4c(O)cc(S(=O)(=O)O)cc4c3)c(S(=O)(=O)O)cc2c1)c1ccccc1 [NSC45609],IC50,[3]; SK species: Hp,≤ 10 µM and 7 µM
N=C(NO)c1ccc(Oc2cc(Cl)cc(Cl)c2)c([N+](=O)[O-])c1 [SPB01099],IC50,[3]; SK species: Hp,< 100 µM
same,IC50,[4],< 100 µM
O=C(NNC(=O)C1c2ccccc2Oc2ccccc21)c1cccc(F)c1 [RH00016],IC50,"[3]; IC50, SK species: Hp",40.2 µM
same,IC50,[4],< 100 µM
"O=C1Nc2ccc(I)cc2/C1=C/c1cc(Br)c(O)c(Br)c1 [GW5074, reference compound]",Inhibitory effect against shikimate kinase (in words),[3],showed inhibitory effects
same,IC50,"[3]; IC50, SK species: Hp",31.4 µM
same,Inhibitory effect against shikimate kinase (in words),[4],showed inhibitory effects
same,IC50,[4],29.6 µM
